# In ChEMBL document CHEMBL3885861, “Open TG-GATES”:
# Where a name gives a salt, the structure may show the parent alone.
# Species on record: Rattus norvegicus
# Experiment: Open TG-GATES - Regimen: Single
# Format: toxicity, organism-based, Sprague-Dawley
# Parameters: regimen Single, gender Male, age 6 weeks
# Details: in vivo, ip, 0 mg/kg, route intraperitoneal injection, dose level Control; for APTT / Bas / Eos / Fbg / Hb / Ht / Lym / MCH / MCHC / MCV / Mono / Neu / PT / Plat / RBC / Ret / WBC: tissue Blood; for KIDNEY_L / KIDNEY_R / KIDNEY_TOTAL: tissue Kidney; for LIVER: tissue Liver; for A/G / ALP / ALT / AST / BUN / CRE / Ca / Cl / DBIL / GLC / IP / K / LDH / Na / PL / RALB / TBIL / TC / TG / TP / gamma-GTP: tissue Plasma
structure (smiles),measurement,setting,value
CCOC(=O)/C=C\C(=O)OCC [DIETHYL MALEATE],TERMINAL_BW,3 h,198.9 g
same,APTT,3 h,16.4 s
same,Bas,3 h,0%
same,Eos,3 h,0.6%
same,Fbg,3 h,209.8 mg/dL
same,Hb,3 h,13 g/dL
same,Ht,3 h,39.1%
same,Lym,3 h,69.8%
same,MCH,3 h,21.2 pg
same,MCHC,3 h,33.4%
same,MCV,3 h,63.6 fL
same,Mono,3 h,7%
same,Neu,3 h,22.8%
same,PT,3 h,12.3 s
same,Plat,3 h,114.7 x10_4/uL
same,RBC,3 h,615.6 x10_4/ul
same,Ret,3 h,10.1%
same,WBC,3 h,113.4 x10_2/uL
same,KIDNEY_L,3 h,0.9 g
same,KIDNEY_R,3 h,0.9 g
same,KIDNEY_TOTAL,3 h,1.8 g
same,LIVER,3 h,9.2 g
same,A/G,3 h,2
same,ALP,3 h,732.6 IU/L
same,ALT,3 h,39.8 IU/L
same,AST,3 h,78.2 IU/L
same,BUN,3 h,14.6 mg/dL
same,CRE,3 h,0.5 mg/dL
same,Ca,3 h,11.2 mg/dL
same,Cl,3 h,106 meq/L
same,DBIL,3 h,0.028 mg/dL
same,GLC,3 h,187 mg/dL
same,IP,3 h,10.1 mg/dL
same,K,3 h,5.2 meq/L
same,LDH,3 h,80.6 IU/L
same,Na,3 h,140.4 meq/L
same,PL,3 h,137.4 mg/dL
same,RALB,3 h,3.6 g/dL
same,TBIL,3 h,0.3 mg/dL
same,TC,3 h,79.6 mg/dL
same,TG,3 h,38 mg/dL
same,TP,3 h,5.4 g/dL
same,gamma-GTP,3 h,1 IU/L
same,TERMINAL_BW,6 h,197.4 g
same,APTT,6 h,16.4 s
same,Bas,6 h,0%
same,Eos,6 h,1%
same,Fbg,6 h,219.8 mg/dL
same,Hb,6 h,13.4 g/dL
same,Ht,6 h,40.3%
same,Lym,6 h,67%
same,MCH,6 h,21.6 pg
same,MCHC,6 h,33.3%
same,MCV,6 h,64.8 fL
same,Mono,6 h,7.4%
same,Neu,6 h,24.6%
same,PT,6 h,12 s
same,Plat,6 h,118.6 x10_4/uL
same,RBC,6 h,621.6 x10_4/ul
same,Ret,6 h,8.9%
same,WBC,6 h,102 x10_2/uL
same,KIDNEY_L,6 h,0.8 g
same,KIDNEY_R,6 h,0.9 g
same,KIDNEY_TOTAL,6 h,1.7 g
same,LIVER,6 h,8.3 g
same,A/G,6 h,1.8
same,ALP,6 h,838.6 IU/L
same,ALT,6 h,35.2 IU/L
same,AST,6 h,67 IU/L
same,BUN,6 h,14 mg/dL
same,CRE,6 h,0.4 mg/dL
same,Ca,6 h,10.6 mg/dL
same,Cl,6 h,106.6 meq/L
same,DBIL,6 h,0.018 mg/dL
same,GLC,6 h,191 mg/dL
same,IP,6 h,10.4 mg/dL
same,K,6 h,5.2 meq/L
same,LDH,6 h,70.4 IU/L
same,Na,6 h,139.8 meq/L
same,PL,6 h,142.6 mg/dL
same,RALB,6 h,3.4 g/dL
same,TBIL,6 h,0.4 mg/dL
same,TC,6 h,84.2 mg/dL
same,TG,6 h,51.2 mg/dL
same,TP,6 h,5.3 g/dL
same,gamma-GTP,6 h,1.6 IU/L
same,TERMINAL_BW,9 h,194.7 g
same,APTT,9 h,16.6 s
same,Bas,9 h,0%
same,Eos,9 h,0.6%
same,Fbg,9 h,228.4 mg/dL
same,Hb,9 h,12.7 g/dL
same,Ht,9 h,38%
same,Lym,9 h,73.8%
same,MCH,9 h,21.7 pg
same,MCHC,9 h,33.3%
same,MCV,9 h,65 fL
same,Mono,9 h,3%
same,Neu,9 h,22.6%
same,PT,9 h,11.9 s
same,Plat,9 h,117 x10_4/uL
same,RBC,9 h,585.2 x10_4/ul
same,Ret,9 h,9.9%
same,WBC,9 h,101.3 x10_2/uL
same,KIDNEY_L,9 h,0.9 g
same,KIDNEY_R,9 h,0.9 g
same,KIDNEY_TOTAL,9 h,1.8 g
same,LIVER,9 h,7.9 g
same,A/G,9 h,2.2
same,ALP,9 h,605 IU/L
same,ALT,9 h,29.6 IU/L
same,AST,9 h,66.4 IU/L
same,BUN,9 h,11.8 mg/dL
same,CRE,9 h,0.5 mg/dL
same,Ca,9 h,10.6 mg/dL
same,Cl,9 h,106.8 meq/L
same,DBIL,9 h,0.036 mg/dL
same,GLC,9 h,191.8 mg/dL
same,IP,9 h,10.3 mg/dL
same,K,9 h,5 meq/L
same,LDH,9 h,59 IU/L
same,Na,9 h,138 meq/L
same,PL,9 h,133.2 mg/dL
same,RALB,9 h,3.6 g/dL
same,TBIL,9 h,0.4 mg/dL
same,TC,9 h,76.8 mg/dL
same,TG,9 h,40.4 mg/dL
same,TP,9 h,5.3 g/dL
same,gamma-GTP,9 h,2.4 IU/L
same,TERMINAL_BW,24 h,212.9 g
same,APTT,24 h,16 s
same,Bas,24 h,0%
same,Eos,24 h,0.4%
same,Fbg,24 h,226.8 mg/dL
same,Hb,24 h,12.9 g/dL
same,Ht,24 h,38.4%
same,Lym,24 h,79.8%
same,MCH,24 h,21.8 pg
same,MCHC,24 h,33.7%
same,MCV,24 h,65 fL
same,Mono,24 h,4.6%
same,Neu,24 h,15%
same,PT,24 h,11.7 s
same,Plat,24 h,121.2 x10_4/uL
same,RBC,24 h,590.8 x10_4/ul
same,Ret,24 h,9.5%
same,WBC,24 h,106.7 x10_2/uL
same,KIDNEY_L,24 h,0.9 g
same,KIDNEY_R,24 h,0.9 g
same,KIDNEY_TOTAL,24 h,1.8 g
same,LIVER,24 h,10.1 g
same,A/G,24 h,2.2
same,ALP,24 h,864.6 IU/L
same,ALT,24 h,34.8 IU/L
same,AST,24 h,66.8 IU/L
same,BUN,24 h,20.4 mg/dL
same,CRE,24 h,0.5 mg/dL
same,Ca,24 h,10.8 mg/dL
same,Cl,24 h,106 meq/L
same,DBIL,24 h,0.018 mg/dL
same,GLC,24 h,202.2 mg/dL
same,IP,24 h,8.6 mg/dL
same,K,24 h,4.9 meq/L
same,LDH,24 h,93.4 IU/L
same,Na,24 h,140 meq/L
same,PL,24 h,143.2 mg/dL
same,RALB,24 h,3.8 g/dL
same,TBIL,24 h,0.3 mg/dL
same,TC,24 h,77.2 mg/dL
same,TG,24 h,93.6 mg/dL
same,TP,24 h,5.5 g/dL
same,gamma-GTP,24 h,2.2 IU/L
